# Biological target: T1, ATM (Homo sapiens, UniProt Q13315)
# T1 construct: detecting phosphorylation of Chk2 in a human non-small cell lung cancer cell line NCI-H460 (ATCC company); host or cells: NCI-H460 human non-small cell lung cancer cells
# Assay: ATM inhibition test (phosphorylation of Chk2 generated by ionizing radiation, AlphaScreen SureFire)
# Format: cell-based
# Settings: phosphorylated Chk2 in NCI-H460 cells, ionizing radiation 8Gy, 1 hour after test compound treatment; read-out: ATM inhibitory activity
# In short: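 In NCI-H460 cells, radiation-triggered Chk2 phosphorylation (8Gy, 1 h) is detected by AlphaScreen SureFire following 1 h compound exposure.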
# T1 sequence (Q13315 whole entry): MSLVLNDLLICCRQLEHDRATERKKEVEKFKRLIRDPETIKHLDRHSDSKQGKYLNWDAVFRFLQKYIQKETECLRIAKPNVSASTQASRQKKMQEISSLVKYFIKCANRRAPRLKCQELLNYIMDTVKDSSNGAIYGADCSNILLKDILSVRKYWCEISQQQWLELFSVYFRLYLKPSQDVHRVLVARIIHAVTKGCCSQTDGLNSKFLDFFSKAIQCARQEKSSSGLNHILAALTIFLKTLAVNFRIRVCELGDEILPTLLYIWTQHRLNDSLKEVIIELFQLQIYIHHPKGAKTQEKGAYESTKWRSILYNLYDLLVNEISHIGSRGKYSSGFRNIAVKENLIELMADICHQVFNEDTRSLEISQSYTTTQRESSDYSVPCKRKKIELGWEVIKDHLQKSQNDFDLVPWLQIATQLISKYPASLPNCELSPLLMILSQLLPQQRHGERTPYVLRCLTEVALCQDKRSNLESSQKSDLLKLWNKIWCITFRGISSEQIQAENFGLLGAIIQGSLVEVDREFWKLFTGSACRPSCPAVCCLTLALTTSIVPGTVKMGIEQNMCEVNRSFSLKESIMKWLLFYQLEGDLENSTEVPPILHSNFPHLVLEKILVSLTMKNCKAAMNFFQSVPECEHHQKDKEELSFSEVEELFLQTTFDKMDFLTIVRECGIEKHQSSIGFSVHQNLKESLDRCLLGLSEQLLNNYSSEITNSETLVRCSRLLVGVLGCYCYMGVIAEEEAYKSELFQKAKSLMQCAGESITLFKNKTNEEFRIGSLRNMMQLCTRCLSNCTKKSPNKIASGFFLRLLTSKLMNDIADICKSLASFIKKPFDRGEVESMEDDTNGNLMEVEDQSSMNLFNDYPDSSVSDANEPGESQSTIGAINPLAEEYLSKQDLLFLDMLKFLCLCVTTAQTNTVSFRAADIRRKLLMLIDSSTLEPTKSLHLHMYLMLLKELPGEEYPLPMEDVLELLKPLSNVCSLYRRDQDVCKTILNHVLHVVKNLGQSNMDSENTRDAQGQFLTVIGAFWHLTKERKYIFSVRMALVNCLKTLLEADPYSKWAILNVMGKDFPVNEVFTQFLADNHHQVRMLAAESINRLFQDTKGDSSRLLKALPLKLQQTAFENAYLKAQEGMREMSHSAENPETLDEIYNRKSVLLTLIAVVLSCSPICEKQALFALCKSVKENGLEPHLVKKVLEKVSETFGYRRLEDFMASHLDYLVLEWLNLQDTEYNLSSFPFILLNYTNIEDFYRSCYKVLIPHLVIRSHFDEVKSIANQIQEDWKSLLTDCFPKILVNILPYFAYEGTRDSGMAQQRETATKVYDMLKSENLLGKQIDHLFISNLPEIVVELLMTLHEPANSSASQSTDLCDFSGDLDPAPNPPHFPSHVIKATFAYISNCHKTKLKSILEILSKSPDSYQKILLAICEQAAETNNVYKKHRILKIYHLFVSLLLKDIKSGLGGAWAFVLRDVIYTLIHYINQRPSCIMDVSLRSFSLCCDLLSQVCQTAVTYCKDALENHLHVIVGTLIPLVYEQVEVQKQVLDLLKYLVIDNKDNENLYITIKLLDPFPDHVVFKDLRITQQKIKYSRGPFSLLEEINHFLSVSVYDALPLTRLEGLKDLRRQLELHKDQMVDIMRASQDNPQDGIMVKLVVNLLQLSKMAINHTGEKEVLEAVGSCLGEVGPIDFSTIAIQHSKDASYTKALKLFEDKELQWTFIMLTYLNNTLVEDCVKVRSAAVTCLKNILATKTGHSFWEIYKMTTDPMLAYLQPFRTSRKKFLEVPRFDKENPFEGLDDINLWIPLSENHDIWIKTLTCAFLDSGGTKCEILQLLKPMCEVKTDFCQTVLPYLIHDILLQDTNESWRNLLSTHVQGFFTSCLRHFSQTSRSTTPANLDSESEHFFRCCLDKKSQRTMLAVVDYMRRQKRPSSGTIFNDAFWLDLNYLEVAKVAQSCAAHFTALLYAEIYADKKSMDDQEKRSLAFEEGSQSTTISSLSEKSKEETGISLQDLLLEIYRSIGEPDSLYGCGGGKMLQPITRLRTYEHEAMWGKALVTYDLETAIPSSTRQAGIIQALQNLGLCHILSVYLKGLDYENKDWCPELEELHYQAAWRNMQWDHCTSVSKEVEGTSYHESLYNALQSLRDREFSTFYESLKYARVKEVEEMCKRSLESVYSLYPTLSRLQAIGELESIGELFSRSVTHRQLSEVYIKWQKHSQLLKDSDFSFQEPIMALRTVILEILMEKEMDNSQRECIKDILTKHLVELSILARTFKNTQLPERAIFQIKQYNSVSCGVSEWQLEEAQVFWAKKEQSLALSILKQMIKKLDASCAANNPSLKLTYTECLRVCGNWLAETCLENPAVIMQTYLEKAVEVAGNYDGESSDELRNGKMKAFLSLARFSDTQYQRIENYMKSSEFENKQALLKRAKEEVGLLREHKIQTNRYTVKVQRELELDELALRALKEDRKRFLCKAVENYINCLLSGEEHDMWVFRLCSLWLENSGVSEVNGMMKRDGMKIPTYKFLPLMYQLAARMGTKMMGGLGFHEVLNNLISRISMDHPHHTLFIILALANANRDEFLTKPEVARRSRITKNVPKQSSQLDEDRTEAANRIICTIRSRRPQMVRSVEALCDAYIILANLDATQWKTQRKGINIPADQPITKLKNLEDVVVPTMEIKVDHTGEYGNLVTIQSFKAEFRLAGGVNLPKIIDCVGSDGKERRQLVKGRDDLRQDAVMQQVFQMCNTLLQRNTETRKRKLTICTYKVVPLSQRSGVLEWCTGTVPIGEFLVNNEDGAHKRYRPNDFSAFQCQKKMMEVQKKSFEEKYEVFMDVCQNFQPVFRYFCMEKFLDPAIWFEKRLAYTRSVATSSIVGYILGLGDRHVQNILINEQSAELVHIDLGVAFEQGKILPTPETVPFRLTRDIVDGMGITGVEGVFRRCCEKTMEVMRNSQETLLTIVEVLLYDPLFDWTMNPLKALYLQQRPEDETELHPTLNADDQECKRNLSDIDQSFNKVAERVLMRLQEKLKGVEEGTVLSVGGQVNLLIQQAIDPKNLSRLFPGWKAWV
row,Compound,IC50 [µM]
1,"O=c1cc(N2CCOCC2)cc(-c2cccc3c2Sc2ccc(NC4CCCCC4N4CCOCC4)cc2S3)[nH]1 (stereo not drawn) [Example 1-16-2, 4-Morpholino-6-(7-((2-morpholinocyclohexyl)amino)thianthren-1-yl)pyridin-2(1H)-one]",0.1 to 0.5
2,"O=c1cc(N2CCOCC2)cc(-c2cccc3c2Sc2ccc(NCCN4CCSCC4)cc2S3)[nH]1 [Example 1-16-4, 4-Morpholino-6-(7-((2-thiomorpholinoethyl)amino)thianthren-1-yl)pyridin-2(1H)-one]",< 0.1
3,"CNCC(Nc1ccc2c(c1)Sc1cccc(-c3cc(N4CCOCC4)cc(=O)[nH]3)c1S2)c1nccc(C)n1 (stereo not drawn) [Example 1-16-5, 6-(7-((2-(Methylamino)-1-(4-methylpyrimidin-2-yl)ethyl)amino)thianthren-1-yl)-4-morpholinopyridin-2(1H)-one]",0.5 to 2
4,"O=c1cc(N2CCOCC2)cc(-c2cccc3c2Sc2ccc(NCCN4CCS(=O)(=O)CC4)cc2S3)[nH]1 [Example 1-16-8, 6-(7-((2-(1,1-Dioxidethiomorpholino)ethyl)amino)thianthren-1-yl)-4-morpholinopyridin-2(1H)-one]",0.1 to 0.5
5,"O=C(CNc1ccc2c(c1)Sc1cccc(-c3cc(N4CCOCC4)cc(=O)[nH]3)c1S2)N1CCCC1 [Example 1-18-1, 4-morpholino-6-(7-((2-oxo-2-(pyrrolidin-1-yl)ethyl)amino)thianthren-1-yl)pyridin-2(1H)-one]",0.1 to 0.5
6,O=C(CNc1ccc2c(c1)Sc1cccc(-c3cc(N4CCOCC4)cc(=O)[nH]3)c1S2)N1CCCCC1 [Example 1-18-2],0.1 to 0.5
7,CN1CCN(C(=O)CNc2ccc3c(c2)Sc2cccc(-c4cc(N5CCOCC5)cc(=O)[nH]4)c2S3)CC1 [Example 1-18-3],0.5 to 2
8,"Cc1cccc(C(CN)Nc2ccc3c(c2)Sc2cccc(-c4cc(N5CCOCC5)cc(=O)[nH]4)c2S3)n1 (stereo not drawn) [Example 1-19-2, 6-(7-((2-Amino-1-(6-methylpyridin-2-yl)ethyl)amino)thianthren-1-yl)-4-morpholinopyridin-2(1H)-one]",0.1 to 0.5
9,"CNCc1ccnc(C(C)Nc2ccc3c(c2)Sc2cccc(-c4cc(N5CCOCC5)cc(=O)[nH]4)c2S3)n1 (stereo not drawn) [Example 1-20-1, 6-(7-((1-(4-((methylamino)methyl)pyrimidin-2-yl)ethyl)amino)thianthren-1-yl)-4-morpholinopyridin-2(1H)-one]",0.1 to 0.5
10,"CNCc1cccc(C(C)Nc2ccc3c(c2)Sc2cccc(-c4cc(N5CCOCC5)cc(=O)[nH]4)c2S3)n1 (stereo not drawn) [Example 1-20-8, 6-(7-((1-(6-((Methylamino)methyl)pyridin-2-yl)ethyl)amino)thianthren-1-yl)-4-morpholino pyridin-2(1H)-one]",0.1 to 0.5
11,"COCCNCc1cccc(C(C)Nc2ccc3c(c2)Sc2cccc(-c4cc(N5CCOCC5)cc(=O)[nH]4)c2S3)n1 (stereo not drawn) [Example 1-20-9, 6-(7-((1-(6-(((2-Methoxyethyl)amino)methyl)pyridin-2-yl)ethyl)amino)thianthren-1-yl)-4-morpholino pyridin-2 (1H)-one]",0.1 to 0.5
12,"COCCNCCC(Nc1ccc2c(c1)Sc1cccc(-c3cc(N4CCOCC4)cc(=O)[nH]3)c1S2)c1cccc(C)n1 (stereo not drawn) [Example 1-20-10, 6-(7-((3-((2-Methoxyethyl)amino)-1-(6-methylpyridin-2-yl)propyl)amino)thianthren-1-yl)-4-morpholino pyridin-2 (1H)-one]",0.1 to 0.5
13,"CNCCC(Nc1ccc2c(c1)Sc1cccc(-c3cc(N4CCOCC4)cc(=O)[nH]3)c1S2)c1cnc(C)cn1 (stereo not drawn) [Example 1-20-11, 6-(7-((3-(Methylamino)-1-(5-methylpyrazin-2-yl)propyl)amino)thianthren-1-yl)-4-morpholino pyridin-2 (1H)-one]",0.5 to 2
14,"CNCCC(Nc1ccc2c(c1)Sc1cccc(-c3cc(N4CCOCC4)cc(=O)[nH]3)c1S2)c1cccc(C)n1 (stereo not drawn) [Example 1-20-12, 6-(7-((3-(Methylamino)-1 (6-methyl pyridin-2-yl)propyl)amino)thianthren-1-yl)-4-morpholino pyridin-2 (1H)-one]",0.1 to 0.5
15,"Cc1cccc(C(Nc2ccc3c(c2)Sc2cccc(-c4cc(N5CCOCC5)cc(=O)[nH]4)c2S3)C2CCCNC2)n1 (stereo not drawn) [Example 1-20-13, 6-(7-(((6-Methylpyridin-2-yl)(piperidin-3-yl)methyl)amino)thianthren-1-yl)-4-morpholino pyridin-2(1H)-one]",0.5 to 2
16,"Cc1cccc(C(Nc2ccc3c(c2)Sc2cccc(-c4cc(N5CCOCC5)cc(=O)[nH]4)c2S3)C2CCNC2)n1 (stereo not drawn) [Example 1-20-14, 6-(7-(((6-Methylpyridin-2-yl)(pyrrolidin-3-yl)methyl)amino)thianthren-1-yl)-4-morpholino pyridin-2(1H)-one]",0.1 to 0.5
17,"Cc1ccc(C(Nc2ccc3c(c2)Sc2cccc(-c4cc(N5CCOCC5)cc(=O)[nH]4)c2S3)C2CN(C)C2)nc1 (stereo not drawn) [Example 1-22-8, 6-(7-(((1-Methylazetidin-3-yl)(5-methylpyridin-2-yl)methyl)amino)thianthren-1-yl)-4-morpholino pyridin-2 (1H)-one]",0.1 to 0.5
18,"O=c1cc(N2CCOCC2)cc(-c2cccc3c2Sc2ccc(NC4CCCN(C5CCCCC5)C4)cc2S3)[nH]1 (stereo not drawn) [Example 1-24-1, 6-(7-((1-Cyclohexylpiperidin-3-yl)amino)thianthren-1-yl)-4-morpholinopyridin-2(1H)-one]",0.1 to 0.5
19,"O=c1cc(N2CCOCC2)cc(-c2cccc3c2Sc2ccc(NC4CCCN(Cc5ccccn5)C4)cc2S3)[nH]1 (stereo not drawn) [Example 1-24-3, 4-Morpholino-6-(7-((1-(pyridin-2-ylmethyl)piperidin-3-yl)amino)thianthren-1-yl)pyridin-2 (1H)-one]",0.1 to 0.5
20,"O=c1cc(N2CCOCC2)cc(-c2cccc3c2Sc2ccc(NC4CCCN(Cc5ccncc5)C4)cc2S3)[nH]1 (stereo not drawn) [Example 1-24-4, 4-Morpholino-6-(7-((1-(pyridin-4-ylmethyl)piperidin-3-yl)amino)thianthren-1-yl)pyridin-2 (1H)-one]",< 0.1

# Other lines, results leading:
row,IC50 [µM],Compound
1,0.1 to 0.5,"COCC(CN1CCCCC1)Nc1ccc2c(c1)Sc1cccc(-c3cc(N4CCOCC4)cc(=O)[nH]3)c1S2 (stereo not drawn) [Example 1-17-2, 6-(7-((1-Methoxy-3-(piperidin-1-yl)propan-2-yl)amino)thianthren-1-yl)-4-morpholinopyridin-2(1H)-one]"
2,0.1 to 0.5,"COCC(CN1CCN(C)CC1)Nc1ccc2c(c1)Sc1cccc(-c3cc(N4CCOCC4)cc(=O)[nH]3)c1S2 (stereo not drawn) [Example 1-17-3, 6-(7-((1-Methoxy-3-(4-methylpiperazin-1-yl)propan-2-yl)amino)thianthren-1-yl)-4-morpholinopyridin-2(1H)-one]"
3,0.1 to 0.5,CC(Nc1ccc2c(c1)Sc1cccc(-c3cc(N4CCOCC4)cc(=O)[nH]3)c1S2)C(=O)N1CCCC1 (stereo not drawn) [Example 1-18-4]
4,0.5 to 2,CC(Nc1ccc2c(c1)Sc1cccc(-c3cc(N4CCOCC4)cc(=O)[nH]3)c1S2)C(=O)N1CCOCC1 (stereo not drawn) [Example 1-18-5]
5,0.1 to 0.5,CC(Nc1ccc2c(c1)Sc1cccc(-c3cc(N4CCOCC4)cc(=O)[nH]3)c1S2)C(=O)N1CCCC1C (stereo not drawn) [Example 1-18-6]
6,0.1 to 0.5,"CCCC(Nc1ccc2c(c1)Sc1cccc(-c3cc(N4CCOCC4)cc(=O)[nH]3)c1S2)[C@H](C)N (stereo partly drawn) [Example 1-20-2, 6-(7-(((2S)-2-Aminohexan-3-yl)amino)thianthren-1-yl)-4-morpholino pyridin-2(1H)-one]"
7,0.1 to 0.5,"CCCCC(Nc1ccc2c(c1)Sc1cccc(-c3cc(N4CCOCC4)cc(=O)[nH]3)c1S2)[C@H](C)N (stereo partly drawn) [Example 1-20-3, 6-(7-(((2S)-2-Aminoheptan-3-yl)amino)thianthren-1-yl)-4-morpholino pyridin-2(1H)-one]"
8,0.5 to 2,"CC(C)CC(Nc1ccc2c(c1)Sc1cccc(-c3cc(N4CCOCC4)cc(=O)[nH]3)c1S2)[C@H](C)N (stereo partly drawn) [Example 1-20-4, 6-(7-(((2S)-2-Amino-5-methylhexan-3-yl)amino)thianthren-1-yl)-4-morpholino pyridin-2(1H)-one]"
9,0.1 to 0.5,"CC[C@H](N)C(C)Nc1ccc2c(c1)Sc1cccc(-c3cc(N4CCOCC4)cc(=O)[nH]3)c1S2 (stereo partly drawn) [Example 1-20-5, 6-(7-(((3S)-3-Aminopentan-2-yl)amino)thianthren-1-yl)-4-morpholino pyridin-2(1H)-one]"
10,0.1 to 0.5,"CCC(Nc1ccc2c(c1)Sc1cccc(-c3cc(N4CCOCC4)cc(=O)[nH]3)c1S2)[C@@H](N)CC (stereo partly drawn) [Example 1-20-6, 6-(7-(((4S)-4-Aminohexan-3-yl)amino)thianthren-1-yl)-4-morpholino pyridin-2(1H)-one]"
11,0.5 to 2,CC[C@H](N)C(CC(C)C)Nc1ccc2c(c1)Sc1cccc(-c3cc(N4CCOCC4)cc(=O)[nH]3)c1S2 (stereo partly drawn) [Example 1-20-7]
12,0.1 to 0.5,"CCCC(Nc1ccc2c(c1)Sc1cccc(-c3cc(N4CCOCC4)cc(=O)[nH]3)c1S2)[C@H](C)N1CCOCC1 (stereo partly drawn) [Example 1-21-1, 6-(7-(((2S)-2-morpholinohexan-3-yl)amino)thianthren-1-yl)-4-morpholinopyridin-2(1H)-one]"
13,0.1 to 0.5,"CCCCC(Nc1ccc2c(c1)Sc1cccc(-c3cc(N4CCOCC4)cc(=O)[nH]3)c1S2)[C@H](C)N1CCOCC1 (stereo partly drawn) [Example 1-21-2, 4-Morpholino-6-(7-(((2S)-2-morpholinoheptan-3-yl)amino)thianthren-1-yl) pyridin-2(1H)-one]"
14,0.1 to 0.5,"CC[C@@H](C(C)Nc1ccc2c(c1)Sc1cccc(-c3cc(N4CCOCC4)cc(=O)[nH]3)c1S2)N1CCOCC1 (stereo partly drawn) [Example 1-21-3, 4-Morpholino-6-(7-(((3S)-3-morpholinopentan-2-yl)amino)thianthren-1-yl) pyridin-2(1H)-one]"
15,0.1 to 0.5,"CCC(Nc1ccc2c(c1)Sc1cccc(-c3cc(N4CCOCC4)cc(=O)[nH]3)c1S2)[C@H](CC)N1CCOCC1 (stereo partly drawn) [Example 1-21-4, 4-Morpholino-6-(7-(((4S)-4-morpholinohexan-3-yl)amino)thianthren-1-yl) pyridin-2(1H)-one]"
16,0.1 to 0.5,"CC(Nc1ccc2c(c1)Sc1cccc(-c3cc(N4CCOCC4)cc(=O)[nH]3)c1S2)[C@H](C)N1CCOCC1 (stereo partly drawn) [Example 1-21-5, 6-(7-(((3 S)-3-morpholinobutan-2-yl)amino)thianthren-1-yl)-4-morpholinopyridin-2(1H)-one]"

# Reference: US9586951B2 (FUJIFILM Corporation, priority 2013, dated 2017)
